Source: PMC10180515, “Biological Evaluation of Triorganotin Derivatives as Potential Anticancer Agents” (Molecules, 2023)
Several values for one entry are separate records, joined by “and”; a condition that tells them apart may be missing. Equal entries are not always repeated. Where two headings read alike, the source gives them in different places.

Key:
CAL-27 cells [1] = assay: MTT assay of metabolic activity, CAL-27; format: cell-based, human
MCF-10A cells [2] = assay: MTT assay of metabolic activity, MCF-10A; format: cell-based, human
PBMCs = assay: MTT assay of metabolic activity, PBMCs; format: cell-based, human
U937 cells [3] = assay: MTT assay of metabolic activity, U937; format: cell-based
CAL-27 cells [4] = assay: Trypan blue exclusion viability test, CAL-27; format: cell-based, human; conditions: CAL-27, 24 h
MCF-10A cells [5] = assay: Trypan blue exclusion viability test, MCF-10A; format: cell-based, human; conditions: 24 h
12 bp DNA duplex = assay: NMR interaction with 12 bp DNA duplex; format: binding; conditions: 0.2 mM duplex, 6 h incubation; cisplatin two equivalents, TBT-OCOCF3 two or five equivalents
Description: In order to investigate the mechanisms underlying the cytotoxicity exerted by TBT-OCOF3, a first approach was to verify whether they were based on a direct interaction with DNA, similar to what was described for metal derivatives such as cisplatin. To this purpose, we investigated if TBT-OCOCF3 could bind to DNA using NMR. For TBT-OCOCF3, the 1D and 2D spectra of 12 bp DNA were acquired in the presence or absence of the compound. As a positive control for the interaction, cisplatin was assayed, which forms adducts or inter- and intra-strand crosslinks resulting in interference in the replication machinery, G2/M cell arrest, and cell death by apoptosis or necrosis. A solution containing 0.2 mM of the duplex, whose sequences are indicated in Figure 3, was annealed directly in the NMR tube. The double-helix formation was confirmed by the appearance of low-field signals belonging to the T- and G-NH groups (Figure 3a, left panel). The DNA’s aromatic signals were assigned to the different types of ^1H nuclei using a combination of ^1H-NMR and ^1H-^1H TOCSY experiments (Figure S3 in the Supplementary Materials) and chemical shift values (Figure 3a, right panel).

[6] = phosphate buffer pH 7.4, 37 °C, nominal concentration 400 µM
Description: For the NMR studies, the compounds were dissolved in DMSO-d6 and a phosphate buffer (50 mM, 5% D2O, pH = 7.4) containing, as an internal standard, 2,2,4,4-tetradeuterumtrimethylsilylpropionic acid (TSP). The NMR experiments were performed in D2O at 25 °C and recorded with a Bruker Avance spectrometer operating at 700 MHz for ^1H, equipped with a 5 mm inverse TXI probe, z-axis gradients, and a Sample Xpress Lite autosampler. The ^1H-NMR spectra were recorded with a spectral window of 15 ppm, 16 k complex points, and a relaxation delay of 10 s for a total of 16 transients.

[7] = system: CAL-27 cells, MCF-10A cells, PBMCs, and U937 cells; conditions: read-out: IC50 metabolic activity (MTT) in all tested cells; 24 h
CAL-27 cells [8] = conditions: CAL-27, 2-NBDG, 1 h, 10 μM and 20 μM
MCF-10A cells [9] = conditions: 2-NBDG, 1 h, 10 μM and 20 μM
U937 cells [10] = format: cell-based; conditions: 18 h
CAL-27 cells [11] = assay: Annexin-V/7-AAD double staining flow cytometry, CAL-27; format: cell-based, human; conditions: CAL-27, 4 h; TBT-OCOCF3 20 µM, WMN 0.5 µM; mean ± SD
[12] = 24 h, ± SD, three experiments in triplicate
[13] = 20–80 μM, even at the higher concentration tested

With `N.N.[Cl][Pt][Cl]` [Cisplatin, cis-diaminedichloroplatinum (II)] the IC50 (CAL-27 cells [1]; [12]) was 139 ± 59.5 µM, the IC50 (MCF-10A cells [2]; [12]) was 21.5 ± 0.04 µM and the IC50 (PBMCs; 24 h, ± SD, IL-2 stimulated PBMCs of healthy individuals) was 52.5 ± 5.88 µM. The IC50 (U937 cells [3]; [12]) was 38.1 ± 3.23 µM, the “Susceptibility of cells to treatment (viable cell number)” value (CAL-27 cells [4]; [13]) was “resistant” and the “Susceptibility of cells to treatment (viable cell number)” value (MCF-10A cells [5]; [13]) was “resistant”. The “Interaction with 12 bp DNA (change in NMR spectrum)” value (12 bp DNA duplex) was “showed evidence of the interaction”.
Compound `CCC[CH2][Sn]([Cl])([CH2]CCC)[CH2]CCC` [TBT-Cl, tributyltin chloride] has a Solubility [6] of 61 µM, an IC50 (CAL-27 cells [1]) of 0.91 ± 0.53 µM and an IC50 (MCF-10A cells [2]) of 1.22 ± 0.41 µM. The IC50 (PBMCs) was ≤ 1 µM, the IC50 (U937 cells [3]) was 0.42 ± 0.3 µM and the “Effect on number of viable cells” value (CAL-27 cells [4]; all of the concentrations tested (1.25 to 20 μM)) was “greatly decreased the number of viable cells”. The Inhibition of viability (MCF-10A cells [5]; all of the tested concentrations (1.25 to 20 μM)) was ≥ 90% and the IC50 [7] was ≤ 1 µM and ~1 µM.
`CCC[CH2][Sn]([CH2]CCC)([CH2]CCC)[O][Sn]([CH2]CCC)([CH2]CCC)[CH2]CCC` [TBT-O, bis(tributyltin) oxide] showed a Solubility [6] of 42 µM, an IC50 (CAL-27 cells [1]) of 13.2 µM and an IC50 (MCF-10A cells [2]) of 4.93 ± 2.33 µM. The IC50 (PBMCs) was 2.96 ± 1.35 µM, the IC50 (U937 cells [3]) was 1.82 ± 0.21 µM and the “Effect on trypan-blue-negative (viable) cells recovered” value (CAL-27 cells [4]; 10 µM and 20 µM) was “complete inhibition”. The Inhibition of viability (MCF-10A cells [5]; 5 µM) was 90%, the Inhibition of viability (MCF-10A cells [5]; 10 µM and 20 µM) was 100% and the Glucose uptake inhibition (CAL-27 cells [8]) was “significantly inhibited”. For the same compound, the Glucose uptake inhibition (MCF-10A cells [9]) was “significantly inhibited”.
With `CO[C@H]1C[C@@H]2CC[C@@H](C)[C@@](O)(O2)C(=O)C(=O)N2CCCC[C@H]2C(=O)O[C@H]([C@H](C)C[C@@H]2CC[C@@H](O)[C@H](OC)C2)CC(=O)[C@H](C)/C=C(\C)[C@@H](O)[C@@H](OC)C(=O)[C@H](C)C[C@H](C)/C=C/C=C/C=C/1C` [rapamycin] the “Autophagic-specific fluorescent green signal compared to control cells” value (U937 cells [10]; U937, 0.5 μM) was “significant increase”.
With `COC[C@H]1OC(=O)c2coc3c2[C@@]1(C)C1=C(C3=O)[C@@H]2CCC(=O)[C@@]2(C)C[C@H]1OC(C)=O` [WMN, wortmannin] the “Anx+/7AAD+ cells” value (CAL-27 cells [11]) was 0.78 ± 0.04%, the “Anx+/7AAD- cells” value (CAL-27 cells [11]) was 6.42 ± 2.45% and the “Anx-/7AAD+ cells” value (CAL-27 cells [11]) was 2.99 ± 0.02%. The Anx-/7AAD- cells (CAL-27 cells [11]) was 89.8 ± 4.63% and the “Effect on rapamycin-induced autophagy” value (U937 cells [10]; U937, wortmannin 0.5 μM cotreatment with rapamycin 0.5 μM) was “significantly inhibited”.
